Experimental data published in patent publication US8420657B2 (Novartis AG, priority 2008, dated 2013).

Experiments:
GST-JAK2(808-1132) = biological target: T1, GST-JAK2(808-1132) (Homo sapiens, UniProt O60674); assay: JAK2 kinase assay (Caliper mobility shift, LabChip 3000); format: biochemical
T1 construct: GST-JAK2(808-1132); purchased Invitrogen (Carlsbad, USA) #4288
Outline: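 Eight-point compound series (final 10–0.003 μM) tested on purchased GST-JAK2 kinase domain (808-1132). Peptide FITC-JAK3tide plus ATP reacted 60 min, 30 °C, then quenched with EDTA; turnover from charge-based separation of substrate and product.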

[1] = tested on: JAK2-dependent nuclear translocation of STAT5-GFP in U-2 OS osteosarcoma cells; assay: STAT5 nuclear translocation assay (Cellomics), rhEpo stimulated U-2 OS STAT5-GFP cells; format: cell-based; conditions: Homo sapiens, U2OS; STAT5 translocation pathway
Outline: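 U-2 OS cells stably expressing STAT5a-GFP and EpoR pre-treated with compound (final 10 μM to 0.003 μM, 0.1% DMSO) for 30 min at 37° C., then stimulated 1 h with 5 U/ml rhEpo. Nuclear-cytoplasmic GFP differential quantified by automated imaging (≥1000 cells/well, Hoechst nuclear mask). IC50 from % translocation normalized to untreated and DMSO-stimulated controls.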

T1 sequence (O60674 808-1132): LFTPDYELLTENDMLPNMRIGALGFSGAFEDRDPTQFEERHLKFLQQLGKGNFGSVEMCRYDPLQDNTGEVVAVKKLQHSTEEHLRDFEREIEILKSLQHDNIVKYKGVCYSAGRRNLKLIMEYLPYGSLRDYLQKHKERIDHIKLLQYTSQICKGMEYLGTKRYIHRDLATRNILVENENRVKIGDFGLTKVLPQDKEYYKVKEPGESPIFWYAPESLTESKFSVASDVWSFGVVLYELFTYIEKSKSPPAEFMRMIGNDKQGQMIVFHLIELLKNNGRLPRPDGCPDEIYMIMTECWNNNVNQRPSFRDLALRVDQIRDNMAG

IC50 (GST-JAK2(808-1132))	IC50 [1]	SMILES
≤ 3 nM	71 nM	Fc1cc(-n2ccc3cnc(Nc4ccc(CN5CCOCC5)nc4)nc32)cc(F)c1CN1CCOCC1 [Example 480, [7-(3,5-Difluoro-4-morpholin-4-ylmethyl-phenyl)-7H-pyrrolo[2,3-d]pyrimidin-2-yl]-(6-morpholin-4-ylmethyl-pyridin-3-yl)-amine]
≤ 3 nM	104 nM	Cc1cc(Nc2ncc3ccn(-c4cc(F)c(CN5CCOCC5)c(F)c4)c3n2)cnc1N1CCNC(C)(C)C1=O [Example 493, 1-{5-[7-(3,5-Difluoro-4-morpholin-4-ylmethyl-phenyl)-7H-pyrrolo[2,3-d]pyrimidin-2-ylamino]-3-methyl-pyridin-2-yl}-3,3-dimethyl-piperazin-2-one]
9.6 nM	45.5 nM	Cc1ccc(Nc2ncc3ccn(-c4ccc(S(=O)(=O)NC(C)(C)C)cc4)c3n2)cc1CN1C[C@@H](C)N[C@@H](C)C1 [Example 387, N-tert-Butyl-4-{2-[3-(cis-3,5-dimethyl-piperazin-1-ylmethyl)-4-methyl-phenylamino]-pyrrolo[2,3-d]pyrimidin-7-yl}-benzenesulfonamide]
≤ 3 nM	67 nM	Cc1ccc(Nc2ncc3ccn(-c4ccc(S(=O)(=O)NC(C)(C)C)cc4)c3n2)cc1CN1CCNCC1 [Example 376, N-tert-Butyl-4-[2-(4-methyl-3-piperazin-1-ylmethyl-phenylamino)-pyrrolo[2,3-d]pyrimidin-7-yl]-benzenesulfonamide]
≤ 3 nM	245 nM	Cc1ccc(Nc2ncc3ccn(-c4cc(F)c(CN5CCOCC5)c(F)c4)c3n2)cc1CN1CCN(CCN(C)C)CC1 [Example 398, [7-(3,5-Difluoro-4-morpholin-4-ylmethyl-phenyl)-7H-pyrrolo[2,3-d]pyrimidin-2-yl]-{3-[4-(2-dimethylamino-ethyl)-piperazin-1-ylmethyl]-4-methyl-phenyl}-amine]
≤ 3 nM	51 nM	Cc1cc(Nc2ncc3ccn(-c4cc(F)c(CN5CCOCC5)c(F)c4)c3n2)cnc1N1CCNCC1=O [Example 495, 1-{5-[7-(3,5-Difluoro-4-morpholin-4-ylmethyl-phenyl)-7H-pyrrolo[2,3-d]pyrimidin-2-ylamino]-3-methyl-pyridin-2-yl}-piperazin-2-one]
≤ 3 nM	14 nM	C[C@@H]1CN(Cc2ccc(Nc3ncc4ccn(-c5ccc6c(c5)CCC(=O)N6)c4n3)cc2)C[C@H](C)N1 [Example 468, 6-{2-[4-(cis-3,5-Dimethyl-piperazin-1-ylmethyl)-phenylamino]-pyrrolo[2,3-d]pyrimidin-7-yl}-3,4-dihydro-1H-quinolin-2-one]
< 3 nM	43.1 nM	CN1CCOC[C@@H]1c1ccc(Nc2ncc3ccn(-c4cc(F)c(CN5CCOCC5)c(F)c4)c3n2)cc1 [Example 509, [7-(3,5-Difluoro-4-morpholin-4-ylmethyl-phenyl)-7H-pyrrolo[2,3-d]pyrimidin-2-yl]-[4-((S)-4-methyl-morpholin-3-yl)-phenyl]-amine]
≤ 3 nM	21.8 nM	Fc1cc(-n2ccc3cnc(Nc4ccnc(OC5CCOCC5)c4)nc32)cc(F)c1CN1CCOCC1 [Example 350, [7-(3,5-Difluoro-4-morpholin-4-ylmethyl-phenyl)-7H-pyrrolo[2,3-d]pyrimidin-2-yl]-[2-(tetrahydro-pyran-4-yloxy)-pyridin-4-yl]-amine]
8.4 nM	144 nM	Cc1ccc(Nc2ncc3ccn(-c4ccc(C(=O)N5CCOCC5)c(F)c4)c3n2)cc1CN1C[C@@H](C)N[C@@H](C)C1 [Example 367, (4-{2-[3-(cis-3,5-Dimethyl-piperazin-1-ylmethyl)-4-methyl-phenylamino]-pyrrolo[2,3-d]pyrimidin-7-yl}-2-fluoro-phenyl)-morpholin-4-yl-methanone]
≤ 3 nM	2.8 nM	Cc1ccc(Nc2ncc3ccn(-c4cc(F)c(CN5CCOCC5)c(F)c4)c3n2)cc1CN1CCN(C)CC1 [Example 331, [7-(3,5-Difluoro-4-morpholin-4-ylmethyl-phenyl)-7H-pyrrolo[2,3-d]pyrimidin-2-yl]-[4-methyl-3-(4-methyl-piperazin-1-ylmethyl)-phenyl]-amine]
4.3 nM	38 nM	C[C@@H]1CN(C(=O)c2cccc(Nc3ncc4ccn(-c5cc(F)c(CN6CCOCC6)c(F)c5)c4n3)c2)C[C@H](C)N1 [Example 455, {3-[7-(3,5-Difluoro-4-morpholin-4-ylmethyl-phenyl)-7H-pyrrolo[2,3-d]pyrimidin-2-ylamino]-phenyl}-(cis-3,5-dimethyl-piperazin-1-yl)-methanone]
≤ 3 nM	8.6 nM	Fc1cc(-n2ccc3cnc(Nc4ccc([C@H]5CNCCN5)cc4)nc32)cc(F)c1CN1CCOCC1 [Example 474, [7-(3,5-Difluoro-4-morpholin-4-ylmethyl-phenyl)-7H-pyrrolo[2,3-d]pyrimidin-2-yl]-((S)-4-piperazin-2-yl-phenyl)-amine]
≤ 3 nM	2.7 nM	Cc1ccc(Nc2ncc3ccn(-c4cc(F)c(CN5CCS(=O)(=O)CC5)c(F)c4)c3n2)cc1CN1CCN(C)CC1 [Example 421, {7-[4-(1,1-Dioxido-thiomorpholin-4-ylmethyl)-3,5-difluoro-phenyl]-7H-pyrrolo[2,3-d]pyrimidin-2-yl}-[4-methyl-3-(4-methyl-piperazin-1-ylmethyl)-phenyl]-amine]

Continued, compound first:

SMILES	IC50 (GST-JAK2(808-1132))	IC50 [1]
Cc1cc(Nc2ncc3ccn(-c4cc(F)c(CN5CCOCC5)c(F)c4)c3n2)cnc1N1CCNC(C)(C)C1 [Example 488, [7-(3,5-Difluoro-4-morpholin-4-ylmethyl-phenyl)-7H-pyrrolo[2,3-d]pyrimidin-2-yl]-[6-(dimethyl-piperazin-1-yl)-5-methyl-pyridin-3-yl]-amine]	≤ 3 nM	40.5 nM
Fc1cc(-n2ccc3cnc(Nc4ccnc(CN5CCNC(C(F)(F)F)C5)c4)nc32)cc(F)c1CN1CCOCC1 (racemic) [Example 408, [7-(3,5-Difluoro-4-morpholin-4-ylmethyl-phenyl)-7H-pyrrolo[2,3-d]pyrimidin-2-yl]-[2-(3-trifluoromethyl-piperazin-1-ylmethyl)-pyridin-4-yl]-amine]	≤ 3 nM	9.2 nM
O=C1CN(c2ncc(Nc3ncc4ccn(-c5cc(F)c(CN6CCOCC6)c(F)c5)c4n3)cc2Cl)CCN1 [Example 491, 4-{3-Chloro-5-[7-(3,5-difluoro-4-morpholin-4-ylmethyl-phenyl)-7H-pyrrolo[2,3-d]pyrimidin-2-ylamino]-pyridin-2-yl}-piperazin-2-one]	≤ 3 nM	15 nM
C[C@@H]1CN(c2ccc(Nc3ncc4ccn(-c5ccc(S(N)(=O)=O)cc5)c4n3)cn2)C[C@H](C)N1 [Example 369, 4-{2-[6-(cis-3,5-Dimethyl-piperazin-1-yl)-pyridin-3-ylamino]-pyrrolo[2,3-d]pyrimidin-7-yl}-benzenesulfonamide]	≤ 3 nM	57 nM
Fc1cc(-n2ccc3cnc(Nc4ccnc(N5CCN(C6CC6)CC5)c4)nc32)cc(F)c1CN1CCOCC1 [Example 456, [2-(4-Cyclopropyl-piperazin-1-yl)-pyridin-4-yl]-[7-(3,5-difluoro-4-morpolin-4-ylmethyl-phenyl)-7H-pyrrolo[2,3-d]pyrimidin-2-yl]-amine]	≤ 3 nM	1.9 nM
CN1CCN(Cc2ccc(Nc3ncc4ccn(-c5cc(F)c(CN6CCOCC6)c(F)c5)c4n3)cn2)CC1=O [Example 505, 4-{5-[7-(3,5-Difluoro-4-morpholin-4-methyl-phenyl)-7H-pyrrolo[2,3-d]pyrimidin-2-ylamino]-pyridin-2-ylmethyl}-1-methyl-piperazin-2-one]	4.1 nM	60 nM
Cc1ccc(Nc2ncc3ccn(-c4ccc(C(=O)N5CCOCC5)c(F)c4)c3n2)cc1CN1CCOC2(COC2)C1 [Example 359, (4-{2-[3-(2,5-Dioxa-8-aza-spiro[3,5]non-8-ylmethyl)-4-methyl-phenylamino]-pyrrolo[2,3-d]pyrimidin-7-yl}-2-fluoro-phenyl)-morpholin-4-yl-methanone]	7.4 nM	135 nM
Fc1cc(-n2ccc3cnc(Nc4ccc5c(c4)NCC5)nc32)cc(F)c1CN1CCOCC1 [Example 431, [7-(3,5-Difluoro-4-morpholin-4-ylmethyl-phenyl)-7H-pyrrolo[2,3-d]pyrimidin-2-yl]-(2,3-dihydro-1H-indol-6-yl)-amine]	3.2 nM	23.5 nM
COC1CCN(Cc2cc(Nc3ncc4ccn(-c5cc(F)c(CN6CCOCC6)c(F)c5)c4n3)ccn2)C1 (racemic) [Example 426, [7-(3,5-Difluoro-4-morpholin-4-ylmethyl-phenyl)-7H-pyrrolo[2,3-d]pyrimidin-2-yl]-[2-(3-methoxy-pyrrolidin-1-ylmethyl)-pyridin-4-yl]-amine]	≤ 3 nM	18.3 nM
CN1CCN(C(=O)c2cc(Nc3ncc4ccn(-c5cc(F)c(CN6CCOCC6)c(F)c5)c4n3)ccn2)CC1 [Example 361, {4-[7-(3,5-Difluoro-4-morpholin-4-ylmethyl-phenyl)-7H-pyrrolo[2,3-d]pyrimidin-2-ylamino]-pyridin-2-yl}-(4-methyl-piperazin-1-yl)-methanone]	23 nM	260 nM
Cc1ccc(Nc2ncc3ccn(-c4cc(F)c(CN5CCOCC5)c(F)c4)c3n2)cc1Cn1cc(CN(C)C)nn1 [Example 418, [7-(3,5-Difluoro-4-morpholin-4-ylmethyl-phenyl)-7H-pyrrolo[2,3-d]pyrimidin-2-yl]-[3-(4-dimethylaminomethyl-[1,2,3]triazol-1-ylmethyl)-4-methyl-phenyl]-amine]	4.6 nM	16 nM
